US20150217046A1, “DOSING REGIMENS FOR SUBCUTANEOUSLY INFUSIBLE ACIDIC COMPOSITIONS” (SynAgile Corporation, priority 2012, published 2015)

Assays:
[1] = Infusion site reactions, intermittent subcutaneous infusion of 100 and 200 mg/mL LDEE pH 3.7 (Example 4); settings: for infusion site reactions, doses pooled: 14 days post-infusion
Source text: Each infusion site was spaced a minimum of 2 inches (5 cm) apart from any other infusion site.

[2] = Infusion site reactions, continuous subcutaneous infusion of 100 mg/mL LDEE pH 3.7 (Example 5); type: in vivo, minipigs; settings: for Fraction of sites with a reaction (firmness): pH 3.7, 100 mg/mL (0.44M) LDEE, continuous s.c. 8 h, 280 mg per site, N = 15 infusions
Procedure: The 5.6 mL volume was divided between two simultaneously infused sites, each site receiving 2.8 mL, i.e., 280 mg LDEE. At each site the flow rate was 0.35 mL/hour, i.e. 35 mg LDEE/hour was infused. The number of sites infused on the first day totaled in the four minipigs 8, and was 7 on the 8th day, because of dislodgement of a cannula from one site. The total number of infused sites was 15.

[3] = Infusion site reactions, subcutaneous infusion of 50 mg/mL LDEE pH 3.7 (Example 6); settings: for # of Infusion Site Reactions/# of Infusion Sites: pH 3.7, 50 mg/mL
Procedure: Over the course of two consecutive days, four 6-12 week old juvenile minipigs weighing about 6-13 kg were each administered 18 subcutaneous infusions of LDEE pharmaceutical compositions at pH 3.7 (LDEE.HCl, pH adjusted with trisodium citrate). […] Intermittent and continuously infused doses of 137.5-140 mg (0.61-0.62 millimoles) were administered over 8 hours, and intermittent doses of 275 mg (1.22 millimoles) were administered over 16 hours (calculated mass of LDEE in its freebase form).
Each infusion site was spaced a minimum of 2 inches (5 cm) apart from any other infusion site. All minipigs received seven doses of oral carbidopa, 25 mg/dose: one dose at 12 hours prior to the infusion on the first day; 3 doses on the first day of infusion; and 3 doses on the second day of infusion.

[4] = Plasma LDEE concentrations after 8 hours of subcutaneous infusion (Example 8); design: species or system minipigs; settings: minipig, in vivo
Procedure: In addition to measuring the LD plasma concentrations as described in Example 6, also the plasma LDEE concentrations were measured.

CCOC(=O)[C@@H](N)Cc1ccc(O)c(O)c1 [LDEE, levodopa ethyl ester]
1/4: # of Infusion Site Reactions/# of Infusion Sites ([1]; pH 3.7, intermittent s.c., 100 mg/mL, 282 mg, 16 hrs, 24 hrs) | # of Infusion Site Reactions/# of Infusion Sites ([1]; pH 3.7, intermittent s.c., 100 mg/mL, 282 mg, 16 hrs, 3 days) | # of Infusion Site Reactions/# of Infusion Sites ([1]; pH 3.7, intermittent s.c., 200 mg/mL, 282 mg, 16 hrs, 14 days)
2/8: # of Infusion Site Reactions/# of Infusion Sites ([1]; pH 3.7, intermittent s.c., 200 mg/mL, 140 mg, 8 hrs, 14 days)
0.067: Fraction of sites with a reaction (firmness) ([2]; 0 hrs after end of infusion) | Fraction of sites with a reaction (firmness) ([2]; 12 hrs after end of infusion) | Fraction of sites with a reaction (firmness) ([2]; 24 hrs after end of infusion) | Fraction of sites with a reaction (firmness) ([2]; 3 days after end of infusion) | Fraction of sites with a reaction (firmness) ([2]; 7 days after end of infusion)
well tolerated: tolerability of infused volume per site ([1]; LDEE pH 3.7, volumes between 0.094 and 0.37 mL per hour per site) | tolerability of infused volume per site ([3]; 50 mg/mL LDEE pH 3.7, about 0.34 mL per hour per site)
6.9 ng/mL: Plasma LDEE, 480 minutes after start of infusion [4]
0/8: # of Infusion Site Reactions/# of Infusion Sites ([1]; pH 3.7, intermittent s.c., 100 mg/mL, 140 mg, 8 hrs, 0 hrs) | # of Infusion Site Reactions/# of Infusion Sites ([1]; pH 3.7, intermittent s.c., 100 mg/mL, 140 mg, 8 hrs, 12 hrs) | # of Infusion Site Reactions/# of Infusion Sites ([1]; pH 3.7, intermittent s.c., 100 mg/mL, 140 mg, 8 hrs, 24 hrs) | # of Infusion Site Reactions/# of Infusion Sites ([1]; pH 3.7, intermittent s.c., 100 mg/mL, 140 mg, 8 hrs, 14 days) | # of Infusion Site Reactions/# of Infusion Sites ([1]; pH 3.7, intermittent s.c., 200 mg/mL, 140 mg, 8 hrs, 0 hrs) | # of Infusion Site Reactions/# of Infusion Sites ([1]; pH 3.7, intermittent s.c., 200 mg/mL, 140 mg, 8 hrs, 12 hrs) | # of Infusion Site Reactions/# of Infusion Sites ([1]; pH 3.7, intermittent s.c., 200 mg/mL, 140 mg, 8 hrs, 24 hrs) | # of Infusion Site Reactions/# of Infusion Sites ([3]; 137.5 mg, 8 hrs, Intermittent s.c., 0 hrs) | # of Infusion Site Reactions/# of Infusion Sites ([3]; 137.5 mg, 8 hrs, Intermittent s.c., 12 hrs) | # of Infusion Site Reactions/# of Infusion Sites ([3]; 137.5 mg, 8 hrs, Intermittent s.c., 24 hrs)
0 out of 16: infusion site reactions, doses pooled ([1]; 100 mg/mL LDEE pH 3.7)
0/6: # of Infusion Site Reactions/# of Infusion Sites ([3]; 275 mg, 16 hrs, Intermittent s.c., 0 hrs) | # of Infusion Site Reactions/# of Infusion Sites ([3]; 275 mg, 16 hrs, Intermittent s.c., 12 hrs)
1/8: # of Infusion Site Reactions/# of Infusion Sites ([1]; pH 3.7, intermittent s.c., 100 mg/mL, 140 mg, 8 hrs, 7 days)
2/4: # of Infusion Site Reactions/# of Infusion Sites ([1]; pH 3.7, intermittent s.c. (35 min non-delivery), 100 mg/mL, 563 mg, 16 hrs, 24 hrs) | # of Infusion Site Reactions/# of Infusion Sites ([1]; pH 3.7, intermittent s.c., 200 mg/mL, 282 mg, 16 hrs, 3 days) | # of Infusion Site Reactions/# of Infusion Sites ([1]; pH 3.7, intermittent s.c., 200 mg/mL, 282 mg, 16 hrs, 7 days) | # of Infusion Site Reactions/# of Infusion Sites ([1]; pH 3.7, intermittent s.c., 200 mg/mL, 563 mg, 16 hrs, 14 days)
0/4: # of Infusion Site Reactions/# of Infusion Sites ([1]; pH 3.7, intermittent s.c. (35 min non-delivery), 100 mg/mL, 563 mg, 16 hrs, 0 hrs) | # of Infusion Site Reactions/# of Infusion Sites ([1]; pH 3.7, intermittent s.c. (35 min non-delivery), 100 mg/mL, 563 mg, 16 hrs, 12 hrs) | # of Infusion Site Reactions/# of Infusion Sites ([1]; pH 3.7, intermittent s.c. (35 min non-delivery), 100 mg/mL, 563 mg, 16 hrs, 14 days) | # of Infusion Site Reactions/# of Infusion Sites ([1]; pH 3.7, intermittent s.c., 100 mg/mL, 282 mg, 16 hrs, 0 hrs) | # of Infusion Site Reactions/# of Infusion Sites ([1]; pH 3.7, intermittent s.c., 100 mg/mL, 282 mg, 16 hrs, 12 hrs) | # of Infusion Site Reactions/# of Infusion Sites ([1]; pH 3.7, intermittent s.c., 100 mg/mL, 282 mg, 16 hrs, 7 days) | # of Infusion Site Reactions/# of Infusion Sites ([1]; pH 3.7, intermittent s.c., 100 mg/mL, 282 mg, 16 hrs, 14 days) | # of Infusion Site Reactions/# of Infusion Sites ([1]; pH 3.7, intermittent s.c., 200 mg/mL, 282 mg, 16 hrs, 0 hrs) | # of Infusion Site Reactions/# of Infusion Sites ([1]; pH 3.7, intermittent s.c., 200 mg/mL, 282 mg, 16 hrs, 12 hrs) | # of Infusion Site Reactions/# of Infusion Sites ([1]; pH 3.7, intermittent s.c., 200 mg/mL, 282 mg, 16 hrs, 24 hrs) | # of Infusion Site Reactions/# of Infusion Sites ([1]; pH 3.7, intermittent s.c., 200 mg/mL, 563 mg, 16 hrs, 0 hrs) | # of Infusion Site Reactions/# of Infusion Sites ([1]; pH 3.7, intermittent s.c., 200 mg/mL, 563 mg, 16 hrs, 12 hrs) | # of Infusion Site Reactions/# of Infusion Sites ([1]; pH 3.7, intermittent s.c., 200 mg/mL, 563 mg, 16 hrs, 24 hrs) | # of Infusion Site Reactions/# of Infusion Sites ([3]; 140 mg, 8 hrs, Continuous s.c., 0 hrs) | # of Infusion Site Reactions/# of Infusion Sites ([3]; 140 mg, 8 hrs, Continuous s.c., 12 hrs) | # of Infusion Site Reactions/# of Infusion Sites ([3]; 140 mg, 8 hrs, Continuous s.c., 24 hrs) | # of Infusion Site Reactions/# of Infusion Sites ([3]; 140 mg, 8 hrs, Continuous s.c., 3 days)
3/8: # of Infusion Site Reactions/# of Infusion Sites ([1]; pH 3.7, intermittent s.c., 100 mg/mL, 140 mg, 8 hrs, 3 days) | # of Infusion Site Reactions/# of Infusion Sites ([1]; pH 3.7, intermittent s.c., 200 mg/mL, 140 mg, 8 hrs, 3 days) | # of Infusion Site Reactions/# of Infusion Sites ([1]; pH 3.7, intermittent s.c., 200 mg/mL, 140 mg, 8 hrs, 7 days) | # of Infusion Site Reactions/# of Infusion Sites ([3]; 137.5 mg, 8 hrs, Intermittent s.c., 3 days)
1/6: # of Infusion Site Reactions/# of Infusion Sites ([3]; 275 mg, 16 hrs, Intermittent s.c., 24 hrs) | # of Infusion Site Reactions/# of Infusion Sites ([3]; 275 mg, 16 hrs, Intermittent s.c., 3 days)
5 out of 16: infusion site reactions, doses pooled ([1]; 200 mg/mL LDEE pH 3.7)
about 1 cm: diameter of reactions (slightly raised and firm) ([2]; 100 mg/mL (0.44 M) LDEE pH 3.7, continuous s.c. 8 h, 0.35 mL/hour per site)
1/15: fraction of sites with reactions ([2]; 100 mg/mL (0.44 M) LDEE pH 3.7, dose divided between two continuously infused sites)
3/4: # of Infusion Site Reactions/# of Infusion Sites ([1]; pH 3.7, intermittent s.c. (35 min non-delivery), 100 mg/mL, 563 mg, 16 hrs, 3 days) | # of Infusion Site Reactions/# of Infusion Sites ([1]; pH 3.7, intermittent s.c. (35 min non-delivery), 100 mg/mL, 563 mg, 16 hrs, 7 days) | # of Infusion Site Reactions/# of Infusion Sites ([1]; pH 3.7, intermittent s.c., 200 mg/mL, 563 mg, 16 hrs, 3 days) | # of Infusion Site Reactions/# of Infusion Sites ([1]; pH 3.7, intermittent s.c., 200 mg/mL, 563 mg, 16 hrs, 7 days)
0: Fraction of sites with a reaction (firmness) ([2]; 14 days after end of infusion)
